# Key:
# [1] = test system: SLE serum antibody; experiment: ELISA for antibody reactivity of SLE sera to carb-/cit-/native LL37 and carb-REV, and its correlation with SLEDAI; type: binding, human
# Description: Anti-native LL37/cit-LL37/carb-LL37 antibodies were measured as described. Briefly, 96-well flat-bottom plates (Non-Binding surface polystyrene, Corning, Glendale, AZ USA) were coated with 2 μg/mL of native LL37, cit-LL37 or carb-LL37 in carbonate buffer (0.1 M NaHCHO3, pH 9) for 2 h (or overnight) and washed four times with PBS plus 0.1% Tween-20. This washing buffer was used for washing at all steps. The blocking buffer containing 2% bovine serum albumin (BSA, Sigma) in PBS was used for at least 1 h (or overnight) to saturate unspecific binding sites. After washing, sera were diluted at various concentrations (usually at 1:100 or 1:200) in PBS + 2% BSA followed by 1 h incubation with a horseradish peroxidase–conjugated (HRP) goat anti-human IgG (Sigma-Aldrich), diluted 1:10,000 in PBS. The color was developed for 5 min with 3,3′,5,5′-tetramethylbenzidine (TMB) substrate (Sigma-Aldrich). The reaction was stopped by adding 50 μL of 2 N H2SO4 and absorbance determined at 450 nm with a reference wavelength of 540 nm. Responses were considered positive when the OD measured exceeded the mean OD values measured in healthy donors’ plasma plus two standard deviations (+2SD), calculated on the HD group values, as described.
# (§1) Differences between mean values were assessed by Wilcoxon’s matched-pair signed rank test, to compare responses to antigens and control antigens in the same donor. We used Mann-Whitney test for comparison of T-cell and antibody responses between groups of patients and HD. Statistical significance was set at p < 0.05. Correlation analyses were performed by Spearman’s rank-correlation test. Data were analyzed by GraphPad Prism 7.0 or SPSS software.
# [2] = test system: SLE CD4 T-cells; experiment: T-cell proliferation (BrdU incorporation, flow cytometry); type: cell-based, human
# Description: (§2) PBMCs were purified from EDTA-treated blood, on Ficoll-Hypaque (Pharmacia Fine Chemicals, Uppsala, Sweden) and were incubated (10^5 cells/well) in 96-well-flat-bottom-microplates (BD) in T-cell-medium (RPMI 1640, 10% heat-inactivated human serum, HS, Gibco), 2 mM L-glutamine, 10 U/mL penicillin and 100 μg/mL streptomycin), with/without peptides. We performed assays on fresh cells, within 1-to-3 h from collection or on PBMCs frozen in 90% FCS−10% DMSO, whose viability we assessed by Trypan blue exclusion, with an inverted microscope. Recovery of live cells was between 65 and 85% of the frozen number. At day 3 and 5, BrdU was added (1 μg/mL). BrdU-incorporation was detected by APC-labeled anti-BrdU antibody (BD Pharmingen), after surface staining for CD4, CD3, CD8 and analyzed by flow cytometry (Gallios, BeckmanCoulter, Brea, CA, USA). Internal control for T-cell viability and proliferation was PHA treatment (2 μg/mL). SI for proliferation was calculated by dividing percent of BrdU-staining in the presence of each peptide antigen (LL37, carb-LL37, cit-LL37, LL37 reverse, REV; cit-LL37 reverse, cit-REV; carb-LL37 reverse, carb-REV) by the percent obtained in the untreated cells. SI for proliferation was considered positive when the values of percent of BrdU positive cells was three times higher than the values obtained with the control peptides (SI > 3). Assays were repeated twice with each patient. In rare cases in which background proliferation (culture with REV, cit-REV, carb-REV), exceeded antigen-specific proliferation (that is response to LL37, carb-LL37, cit-LL37), the assay was repeated three times. Concomitant phenotype analysis of LL37-responder T-cells included staining for CD3, CD4, CD8, CXCR5 (CXCR5 was assessed on BrdU/CD3/CD4-positive cells).
# as §1
# [3] = test system: native LL37-P1-specific T-cells (HLA-DRB5*0101 tetramer); experiment: Peptide-MHC-tetramer staining of T-cells after PBMC stimulation; type: cell-based, human; conditions: 6 days stimulation, CD38hi CD4 T-cells
# Description: Peptide-MHC-tetramers were from ImmunAware (Denmark). Staining was performed for 40 min with 1microL of tetramer suspension at 37 °C, followed by staining for CD4 (4 °C, 20 min), without washing. After incubation with anti-CD4 antibody, cells were washed, resuspended in PBS and kept at 4 °C. Before flow cytometry-acquisition, cells were labeled with PercP-conjugated 7-AAD to exclude dead cells. The peptide-MHC-tetramers used in this study are: the HLA-DR15-P1: tetramer of HLA-DRB1*1501 LLGDFFRKSKEKIGK (corresponding to the first aa at the NH2-term of the mature native LL37), (PE-conjugated) and the control peptide-MHC-tetramer called DR15-ctr: tetramer of HLA-DRB1*1501 […]1-169-185 (PE-conjugated). The other couple of peptide-MHC-tetramers used were HLA-DRB5*0101 loaded with the same LL37 epitope as above and the control tetramer HLA-DRB5*0101 loaded with the control epitope PVSKMRMATPLLMQA (CLIP-derived).
# [4] = test system: pDCs; experiment: IFN-α production by purified pDCs stimulated with peptide-DNA complexes; type: cell-based, human; conditions: peptide without DNA, 24 h, ELISA
# Description: Buffy-coats from HD were from Centro Trasfusionale, Policlinico Umberto I, Rome, IT. After separation of mononuclear cells by Ficoll centrifugation, pDCs were purified as described, by using the Diamond Plasmacytoid Dendritic Cell Isolation Kit (Miltenyi Biotec, Bergisch Gladbach, Germany) to obtain 99% purity. Purified pDCs were seeded into 96-well round-bottom plates at 3.5/5 × 10^4 cells per well in 200 μL RPMI 1640 (GIBCO), supplemented with 10% fetal calf serum (FCS), 1% Hepes and 1% sodium pyruvate. LL37, cit-LL37 and carb-LL37 were premixed with total human genomic DNA (extracted from PBMC of HD, see below) (15 μg/mL). After 15 min incubation at room temperature the mix was added to the pDC cultures. IFN-α in supernatants was measured by ELISA (MabTech, Stockholm, Sweden), after 24 h (according to the manufacturer’s instructions).
# Human DNA was extracted from PBMCs, as reported and was fragmented by sonication. Five milligrams of DNA in a volume of 300 μL were fragmented using the Sonics Vibra Cell sonicator (Newtown, CT, USA), with the following settings: 2, 4 and 10 sonication cycles (30 s on, 30 s off, in ice) to obtain DNA fragment sizes between 100 and 1000 bp. The resulting size distribution was controlled by 2% agarose gel electrophoresis.
# [5] = test system: memory B-cells; conditions: cited from earlier work
# Description: LL37 is able to activate innate immune cells and B-cells after forming complexes with nucleic acids in a special molecular conformation, suitable for TLR stimulation. PDCs, as well as B-cells, are both activated by LL37-DNA or LL37-RNA complexes.
# [6] = test system: SLE CD4 T-cells (CXCR5); experiment: CXCR5 (TFH marker) expression on stimulated CD4 T-cells, flow cytometry; type: cell-based, human; conditions: representative plot
# Description: Antibodies to CD4, CD8, CD3 conjugated with various fluorochromes (FITC, phycoerythrin (PE), peridinin-chlorophyll-protein (PerCp), allophycocyanin (APC), PE-Cy7) were from BD Biosciences or eBiosciences (San Diego, CA). For further LL37-specific T-cell characterization and B-cell characterization we used: APC-Cy7-CXCR5 (FAB190), APC or PE-CD38, CD19, CD20, CD27, antibodies, purchased from BD Biosciences, eBiosciences, Novus Biologicals (Littleton, CO), R&D (Minneapolis, MN). Appropriate isotype-matched controls were purchased from the same companies. PerCp-7-AAD was from BD Pharmingen, DAPI from Invitrogen (Thermo Fisher, Carlsbad, CA, USA).
# as §2
Substance,"Antibody reactivity in SLE patients with renal damage versus without renal damage ([1]; ELISA, N=6 with and N=44 without renal damage, Mann-Whitney, Figure S3 panel a P 0.047)",Correlation of antibody reactivity with SLEDAI ([1]; Spearman),"SLE patients responding by T-cell proliferation ([2]; BrdU, positive if SI > 3, carb-LL37 8 of 25, native LL37 17 of 31, cit-LL37 16 of 31 SLE patients) [%]","Control (Ctr-B5) tetramer positive T-cells ([3]; Ctr-B5 tetr, lower panels Figure S6) [%]","LL37-specific T-cells (LL37-B5 tetramer positive) ([3]; LL37-B5 tetr, upper panels Figure S6) [%]",IFN-α response of pDCs to peptide alone [4],"Stimulation of memory B-cells to mature into plasma cells, LL37-DNA complexes [5]","SLE patients showing an antibody response to the antigen ([1]; ELISA, 2 μg/mL coated antigen, sera 1:100 or 1:200, OD 450 nm, positive: OD > mean HD + 2SD, carb-LL37 28 of 45, carb-REV 8 of 47 SLE patients) [%]","SLE serum antibody reactivity (OD) compared to healthy donors ([1]; ELISA, OD, Mann-Whitney's test)","BrdU-positive CD3+CD4+ T-cells ([2]; BrdU staining, representative zebra plot, Figure S5a) [%]",CXCR5-positive cells among total CD3+CD4+ cells ([6]; Figure S5b left panels) [%],CXCR5-positive cells among CD3+CD4+BrdU+ cells ([6]; Figure S5b middle panels) [%],CXCR5-positive cells among CD3+CD4+BrdU- cells ([6]; Figure S5b right panels) [%]
"LLGDFFRKSKEKIGKEFKRIVQRIKDFLRNLVPRTES [LL37, mature human cathelicidin antimicrobial peptide, COOH-terminal part (res. 134–170), purchased from Proteogenix]",non-significant anti-cit- and anti-native-LL37 antibody increase,both responses also correlated with SLEDAI,55,0.2,4.27,no IFN-α response,able to stimulate memory B-cells to mature into plasma cells,–,–,–,–,–,–
"SETRPVLNRLFDK*IRQVIRKEFEK*GIK*EK*SK*RFFDGLL* [carb-REV, control carbamylated reverse (REV) LL37, reference compound]",–,–,–,–,–,–,–,17,"also significant, as compared to response of HD but significantly lower than the response to carb-LL37",5.35,3.28,8.76,3.26

# Source: article PMC7915858, “Complementary Effects of Carbamylated and Citrullinated LL37 in Autoimmunity and Inflammation in Systemic Lupus Erythematosus” (International Journal of Molecular Sciences, 2021)
